# From US10261017B2, “Methods for detecting and categorizing skin sensitizers” (University of Mississippi, priority 2014, dated 2019)
# Values joined by “and” are separate entries in the source; they are usually repeats but may differ in a detail not shown here. Equal values may be shown once. Read-outs that look alike come from different tables or passages of the source. Marks after values point to notes of the source that are not given here.
# Experiments:
# [1] = pH 10
# [2] = cited from earlier work
# thiol peptide [3] = details: cited from earlier work
# [4] = tested on: ARE-dependent gene activity in a recombinant cell line; details: cited from earlier work
# thiol peptide [5] = assay: Cys-DPRA (Direct Peptide Reactivity Assay), literature data; details: for Cys-DPRA binary classification: FN: false negative; for Cys-DPRA binary classification: FP: false positive; for Cys-DPRA binary classification: TN: true negative; for Cys-DPRA binary classification: TP: true positive
# [6] = NMR method: depletion of electrophile signal on reaction with DCYA
# Source text: The described example can be applied to pure chemicals and mixtures. The method includes the acquisition of at least one NMR spectrum, mixing an electrophile and a nucleophile to acquire an array of control spectra and an addition of catalyst to record an array of reaction spectra. It also includes the quantification of at least one signal and the comparison of the signal with a control and the classification of the reaction based on the depletion of potential sensitizer based on the quantified residual signal.
# 2,5-Dimethylfuran was used as internal standard. When necessary, characterization of the product(s) formed during the reaction(s) was performed by homonuclear ^1H connectivities using 2D-COSY experiments. […] Two- and three bond ^1H-^13C connectivities were determined by gradient-HMBC experiments in which the evolution period for long-range ^1H-^13C coupling constants was optimized for a ^2,3JC,H of 8 Hz. Through-space ^1H connectivities were determined using a NOESY experiment with a mixing time of 0.450 s. […] Toronto, Canada].
# In a 3 mm NMR tube, 1 volume of DCYA (100) mM in CDCl3) was mixed with one volume of sensitizer (100 mM in CDCl3) to give a final concentration of 50 mM for both DCYA and the sensitizer. Control ^1H NMR spectra (reference spectra) were recorded at regular intervals of for a minimum of 5 min. […] All spectra were recorded at constant temperature. All experiments were conducted using the manufacturer's standard presaturation pulse programs and experimental conditions were chosen as explained in NMR spectroscopy section. The progress of the reaction was followed by the diminished peak areas of the resonances for the signal of interest. The spectra were phased, referenced, and integrated using NMR data elaboration software. The structural characterizations of the resulting adducts were confirmed by conducting additional 2D-NMR experiments when necessary.
# Covalent reaction of DCYA with carvone is dependent on the activation of the nucleophilic group (ex. sulfhydryl group to the reactive thio-anion) under basic conditions. This reaction is strongly dependent on the nature of the nucleophile and may be modulated by careful choice of the model nucleophile and the reaction conditions.
# The control spectra are used as reference spectra (FIG. 3A). All the spectra were subjected to automatic phase and baseline correction using a Bernstein polynomial fit (order 3). After these two steps, all the spectra were integrated over the areas of interest. […] Both vinylic and adduct peak areas were normalized relative to the internal standard signal peaks. […] The concentrations of both electrophile and adduct were then plotted as percentage against time (in minutes). (FIG. 5).
# [7] = cited from earlier work; remark: listed apart in the source
# thiol peptide [8] = tested on: thiol peptide
# [9] = Microplate spectrophotometric method (DCYA assay), fluorescence end-point; details: for DCYA 100-RI: RI = reactivity index, 2 equiv. electrophile, pH 10 buffer; for DCYA binary classification: FN: false negative; for DCYA binary classification: FP: false positive; for DCYA assay reactivity / classification in words: microplate spectrophotometric method; for DCYA binary classification: TN: true negative; for DCYA binary classification: TP: true positive, positive if 100-RI <95; for Fluorescence response, Reaction (R), average of 9 readings: DCYA + test article + pH 10 buffer + resin
# [10] = Fluorescent response of DCYA in acetonitrile over time; format: physicochemical; details: micromolar solutions, after 3 h at room temperature
# Procedure: The fluorescent responses of DCYA and DCYA disulfide in ACN were investigated at different concentrations using 1-300 μL/well in a 96 microplate reader at room temperature. Pure acetonitrile was used as a solvent control. The optimum excitation and emission wavelength combination was determined by performing excitation and emission scans. […] At these wavelengths, no solvent interference was observed. […] A linear response for DCYA was observed between 5-80 μM ([…]) concentrations with a R^2=0.995.
# [11] = TLC monitoring of DCYA reactions with electrophiles; details: pH 10 buffer, 1-2.5 equiv. electrophile
# Source text: For visualization purposes, the controls, blank and reactions were monitored by TLC on silica gel plates. A known volume of each sample was loaded on a silica gel plate and eluted with appropriate solvent system. The TLC plates were examined λ366 for the presence of the yellow fluorescence spots corresponding DCYA, its dimer or possible reaction products.
# In order to minimize the competition between auto-dimerization [(DCYA)2] and nucleophilic addition, the reaction time and the electrophile:nucleophile stoichiometry were optimized. Massoia lactone at different concentrations was used to monitor the progress of the reaction by TLC (FIG. 11). […] In order to adequately discriminate between compounds with variable electrophilic strength, the assay was optimized using 2 equivalents of electrophile.
# [12] = reported results from the literature
# [13] = conversion of test chemical at 90 min, 1 equiv. DCYA, 0.1 equiv. DBN, CDCl3
# [14] = based on depletion of electrophile signal at 30 min
compound,measurement,setting,value
Cn1sccc1=O [2-Methyl-4-isothiazolin-3-one],DCYA 100-RI,[1]; 2.1 mM,16.4
same,DCYA binary classification: FN,[1]; 2.1 mM,0
same,DCYA binary classification: FP,[1]; 2.1 mM,0
same,DCYA binary classification: TN,[1]; 2.1 mM,0
same,DCYA binary classification: TP,[1]; 2.1 mM,1
same,LLNA EC3,[2]; reported results (Table 7),1.9%
same,Cys-DPRA % Pept. remain.,thiol peptide [3]; [12],2.1%
same,KeratinoSens ™ EC3,[4]; reported results (Table 7),29.56 µM
same,Cys-DPRA binary classification: FN,thiol peptide [5],0
same,Cys-DPRA binary classification: FP,thiol peptide [5],0
same,Cys-DPRA binary classification: TN,thiol peptide [5],0
same,Cys-DPRA binary classification: TP,thiol peptide [5],1
OCCc1ccc(O)c(O)c1 [3-Hydroxytyrosol],NMR Classification,[6],Non^$
same,NMR assay reactivity / classification in words,[6],almost unreactive
same,Conversion at t30 (depletion of electrophile signal),"[6]; at 30 min, 1 equiv. DCYA",6%
same,NMR Method conversion,[6]; [13],6%
same,DCYA 100-RI,[1]; 2.1 mM,97.2
same,LLNA (EC3),"[2]; mouse, in vivo",0.6%
same,LLNA Classification,"[2]; mouse, in vivo",Strong
same,LLNA EC3,"[2]; mouse, in vivo",0.6%
same,Cys-DPRA reactivity in words,thiol peptide [3],non-reactive
C=C1C(=O)O[C@@H]2C[C@@]3(C)CCC[C@H](C)C3=C[C@H]12 [Alantolactone],Conversion at t30 (depletion of electrophile signal),[6],99%
same,NMR Classification,[6],Strong
same,NMR Method conversion,[6],>99* %
same,DCYA 100-RI,[1],−6.7
same,Result in human patch tests,[7]; in vivo,Positive in human patch tests^6
O=CC=Cc1ccccc1 [Cinnamaldehyde],NMR Classification,[6],Moderate
same,NMR assay reactivity / classification in words,[6],moderate sensitizer
same,Conversion at t30 (depletion of electrophile signal),"[6]; at 30 min, 1 equiv. DCYA",50%
same,NMR Method conversion,[6]; [13],50%
same,DCYA 100-RI,[1]; 2.1 mM,85.1
same,DCYA binary classification: FN,[1]; 2.1 mM,0
same,DCYA binary classification: FP,[1]; 2.1 mM,0
same,DCYA binary classification: TN,[1]; 2.1 mM,0
same,DCYA binary classification: TP,[1]; 2.1 mM,1
same,Cys-DPRA binary classification: FN,thiol peptide [8],0
same,Cys-DPRA binary classification: FP,thiol peptide [8],0
same,Cys-DPRA binary classification: TN,thiol peptide [8],0
same,Cys-DPRA binary classification: TP,thiol peptide [8],1
same,LLNA (EC3),"[2]; mouse, in vivo",3%
same,LLNA Classification,"[2]; mouse, in vivo",Moderate
same,LLNA EC3,"[2]; mouse, in vivo",3%
same,Cys-DPRA % Pept. remain.,thiol peptide [3],29.4%
same,"Cys-DPRA, percentage of thiol peptide depleted",thiol peptide [3],70.6%
same,KeratinoSens ™ EC3,[4],63.94 µM
C=C1C(=O)O[C@@H]2/C=C(\C)CC/C=C(\C)CC[C@@H]12 [Costunolide],NMR Classification,[6],Strong
same,NMR Method conversion,"[6]; 10 min, 50 mM",>97* %
same,Conversion at t30 (depletion of electrophile signal),"[6]; 30 min, 50 mM",97%
same,Result in human patch tests,[7]; reported in literature,Positive in human patch tests^6
same,DCYA 100-RI,[9],−8.5
same,DCYA binary classification: FN,[9],0
same,DCYA binary classification: FP,[9],0
same,DCYA assay reactivity / classification in words,[9],strongly reactive
same,DCYA assay reactivity / classification in words,[9]; listed as costunolide,strong sensitizers
same,DCYA binary classification: TN,[9],0
same,DCYA binary classification: TP,[9],1
O=c1ccc2ccccc2o1 [Coumarin],NMR assay reactivity / classification in words,[6],almost unreactive
same,Conversion at t30 (depletion of electrophile signal),"[6]; 30 min, 50 mM",0%
same,NMR Method conversion,"[6]; 90 min, 50 mM",0%
same,NMR Classification,[6]; [14],Non
same,Cys-DPRA binary classification: FN,thiol peptide [8],0
same,Cys-DPRA binary classification: FP,thiol peptide [5],0
same,Cys-DPRA binary classification: TN,thiol peptide [5],1
same,Cys-DPRA binary classification: TP,thiol peptide [5],0
same,"Fluorescence response, Reaction (R), average of 9 readings",[9],1996.775 RFU
same,DCYA 100-RI,[9],97.2
same,DCYA binary classification: FN,[9],0
same,DCYA binary classification: FP,[9],0
same,DCYA binary classification: TN,[9],1
same,DCYA binary classification: TP,[9],0
"CN(C)c1cccc2c(S(=O)(=O)NCCS)cccc12 [DCYA, 5-(dimethylamino)-N-(2-mercaptoethyl)naphthalene-1-sulfonamide]",Loss of fluorescence response,[10],1.5-3.0%
CCCCC[C@@H]1CC=CC(=O)O1 [Massoia lactone],NMR assay reactivity / classification in words,[6],moderate to strong skin sensitizer
same,Conversion at t30 (depletion of electrophile signal),"[6]; at 30 min, 1 equiv. DCYA, listed as Massoialactone",59%
same,Conversion at t30 (depletion of electrophile signal),"[6]; at 30 min, 1 equiv. DCYA, listed as massoia lactone",60%
same,NMR Classification,[6]; [14],Moderate-strong
same,NMR Method conversion,[6]; [13],66%
same,TLC: adduct formation with DCYA,[11],only a partial reaction was achieved
same,"Fluorescence response, Reaction (R), average of 9 readings",[9]; listed as ML,6064.127 RFU and 6064 RFU
same,DCYA 100-RI,[9],12.8
O=c1c(O)c(O)c1=O [Squaric acid],DCYA 100-RI,[1],91.1
same,Cys-DPRA binary classification: FN,thiol peptide [8],0
same,Cys-DPRA binary classification: FP,thiol peptide [8],0
same,Cys-DPRA binary classification: TN,thiol peptide [8],0
same,Cys-DPRA binary classification: TP,thiol peptide [8],1
same,LLNA EC3,"[2]; mouse, in vivo",4.3%
same,Cys-DPRA % Pept. remain.,thiol peptide [3],53.1%
same,KeratinoSens ™ EC3,[4],>2000 µM
O=C1C=CC(=O)C=C1 [p-Benzoquinone],NMR assay reactivity / classification in words,[6],high reactivity
same,Depletion in less than five minutes,"[6]; NMR, less than five minutes",> 95%
same,Conversion at t30 (depletion of electrophile signal),"[6]; at 30 min, 1 equiv. DCYA",95%
same,NMR Classification,[6]; [14],Strong
same,NMR Method conversion,[6]; [13],95^# %
same,LLNA (EC3),"[2]; effective concentration, published literature (Table 1)",0.01%
same,LLNA Classification,[2]; published literature,Extreme
same,LLNA EC3,[2]; reported results (Table 7),0.01%
same,"Cys-DPRA, percentage of thiol peptide depleted",thiol peptide [3]; adopted from the literature,99.0%
same,Cys-DPRA % Pept. remain.,thiol peptide [3]; [12],1%
same,KeratinoSens ™ EC3,[4]; published literature (Table 1),32.77 µM
same,KeratinoSens ™ EC3,[4]; reported results (Table 7),32.77 µM
same,Cys-DPRA binary classification: FN,thiol peptide [5],0
same,Cys-DPRA binary classification: FP,thiol peptide [5],0
same,Cys-DPRA binary classification: TN,thiol peptide [5],0
same,Cys-DPRA binary classification: TP,thiol peptide [5],1
same,DCYA 100-RI,[9],34.5
same,DCYA binary classification: FN,[9],0
same,DCYA binary classification: FP,[9],0
same,DCYA assay reactivity / classification in words,[9],correctly identified as a sensitizer
same,DCYA binary classification: TN,[9],0
same,DCYA binary classification: TP,[9],1
